{"source": "patent US20230000849A1", "about": "“INHIBITION OF SMARCA2 FOR TREATMENT OF CANCER” (Epizyme, Inc., priority 2017, published 2023)", "key": {"[1]": {"system": "SMARCA4 wild-type or mutant cell lines", "test": "Cell growth in SMARCA4 wild-type or mutant cell lines (FIG. 6B)", "format": "cell-based", "settings": "SMARCA4-wt or mutant cell lines", "text": "FIGS. 6A and 6B are a series of graphs illustrating antiproliferative effects of bromodomain inhibitor PFI-3."}, "SMACA2": {"molecular_target": "SMACA2 (Homo sapiens, UniProt P51531)", "sequence (P51531 whole entry)": "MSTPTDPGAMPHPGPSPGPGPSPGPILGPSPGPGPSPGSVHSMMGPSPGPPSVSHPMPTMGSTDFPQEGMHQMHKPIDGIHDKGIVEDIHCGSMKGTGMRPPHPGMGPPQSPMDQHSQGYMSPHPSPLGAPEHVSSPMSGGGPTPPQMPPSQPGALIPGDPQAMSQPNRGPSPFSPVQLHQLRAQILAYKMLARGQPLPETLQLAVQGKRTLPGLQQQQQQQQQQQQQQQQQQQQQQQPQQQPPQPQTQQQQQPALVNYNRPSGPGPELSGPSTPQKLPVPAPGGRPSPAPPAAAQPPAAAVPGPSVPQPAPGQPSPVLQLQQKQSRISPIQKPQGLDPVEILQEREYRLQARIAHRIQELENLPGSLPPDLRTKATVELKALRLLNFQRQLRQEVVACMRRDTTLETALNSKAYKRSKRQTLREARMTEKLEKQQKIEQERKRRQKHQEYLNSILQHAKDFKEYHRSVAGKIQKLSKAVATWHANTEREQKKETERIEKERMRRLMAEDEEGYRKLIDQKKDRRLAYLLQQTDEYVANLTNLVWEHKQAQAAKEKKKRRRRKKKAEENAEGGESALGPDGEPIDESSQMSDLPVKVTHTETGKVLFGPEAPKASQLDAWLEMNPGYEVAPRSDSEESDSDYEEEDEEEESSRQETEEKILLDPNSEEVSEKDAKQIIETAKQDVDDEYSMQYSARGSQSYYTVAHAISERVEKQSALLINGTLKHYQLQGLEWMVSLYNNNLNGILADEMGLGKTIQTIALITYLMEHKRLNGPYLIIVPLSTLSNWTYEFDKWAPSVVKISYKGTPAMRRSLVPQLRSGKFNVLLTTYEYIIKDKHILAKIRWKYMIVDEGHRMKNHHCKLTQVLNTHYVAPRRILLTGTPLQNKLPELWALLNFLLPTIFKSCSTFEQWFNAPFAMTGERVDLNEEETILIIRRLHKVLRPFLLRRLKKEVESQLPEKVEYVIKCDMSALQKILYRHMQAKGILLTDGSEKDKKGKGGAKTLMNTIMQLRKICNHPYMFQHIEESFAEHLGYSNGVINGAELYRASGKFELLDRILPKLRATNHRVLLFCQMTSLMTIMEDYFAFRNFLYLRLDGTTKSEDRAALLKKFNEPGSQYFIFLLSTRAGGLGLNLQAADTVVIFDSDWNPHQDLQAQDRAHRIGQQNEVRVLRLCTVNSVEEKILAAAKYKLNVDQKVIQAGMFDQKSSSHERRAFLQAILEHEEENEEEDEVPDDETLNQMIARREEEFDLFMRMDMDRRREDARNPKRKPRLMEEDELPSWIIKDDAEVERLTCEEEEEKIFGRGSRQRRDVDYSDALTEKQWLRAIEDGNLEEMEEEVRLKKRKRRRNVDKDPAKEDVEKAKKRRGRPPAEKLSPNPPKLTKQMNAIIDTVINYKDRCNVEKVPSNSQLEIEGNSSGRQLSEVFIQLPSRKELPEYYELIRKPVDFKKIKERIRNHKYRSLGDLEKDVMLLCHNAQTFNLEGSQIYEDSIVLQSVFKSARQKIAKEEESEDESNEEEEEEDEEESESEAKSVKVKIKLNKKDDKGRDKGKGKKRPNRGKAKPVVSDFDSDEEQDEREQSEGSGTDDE", "test": "PFI-3 binding to SMARCA2 (FIG. 6A)"}, "SMARCA2": {"molecular_target": "SMARCA2 (Homo sapiens, UniProt P51531)", "sequence (P51531 whole entry)": "as above", "test": "SMARCA2 ATPase activity inhibition by known bromodomain inhibitors (HTS ADP-Glo bioluminescent format)", "format": "biochemical", "settings": "read-out: % inh SMARCA2 at 10 nM", "method": "As such, the development of viable antagonists or inhibitors (i.e., ATPase inhibitors) requires methods of monitoring ATPase activity.\nThe signal to background ratio, ATPase activity as a function of protein concentration, and the dependence of ATP activity on mononucleosome substrate were determined for the isolated full length SMARCA2 and SMARACA4 in a high throughput screening bioluminescent assay (HTS ADP-Glo™ format)."}}, "note": "“Also recorded” adds a separate entry of the source.", "data": [{"smiles": "O=C(/C=C/N1C[C@H]2C[C@@H]1CN2c1ccccn1)c1ccccc1O", "note": "[PFI3]", "values": [{"measurement": "effect on cell growth", "setting": "[1]", "value": "no functional effect; also recorded: does not impact cell growth"}, {"measurement": "binding affinity to SMARCA2", "setting": "SMACA2", "value": "nanomolar affinity"}, {"measurement": "inhibition at 0.01 µM", "setting": "SMARCA2", "value": 5, "unit": "%"}]}]}
